Source: US11628160B2, “Compositions and methods for treating brain injury” (Azevan Pharmaceuticals, Inc., priority 2017, dated 2023)
pIC50, pKi: −log10 of the molar value.

What was measured:
human V1a receptor [1] = molecular target: T1, human V1a receptor (Homo sapiens, UniProt P37288); test: Inhibition of phosphatidylinositol turnover (V1a); assay type: cell-based; conditions: hV1a cells
T1 construct: host or cells: CHO cells
From the text: EXAMPLE. Inhibition of phosphatidylinositol turnover (V1a). The physiological effects of vasopressin are mediated through specific G-protein coupled receptors. The V1aR is coupled to the Gq/G11 family of G proteins and mediates phosphatidylinositol turnover. The agonist or antagonist character of the compounds of the invention may be determined by their ability to inhibit vasopressin-mediated turnover of phosphatidylinositol by the procedure described in the following paragraphs.
Cell culture and labeling of cells. Three days prior to the assay, near-confluent cultures of hV1a or hV1b cells were dissociated and seeded in 6-well tissue culture plates, about 100 wells being seeded from each 75 cm^2 flask (equivalent to 12:1 split ratio). Each well contained 1 mL of growth medium with 2 μCi of [^3H]myo-inositol (American Radiolabeled Chemicals, St. Louis, Mo., USA).
Incubations (V1a and V1b). All assays were in triplicate except for basal and 10 nM AVP (both n=6). AVP ((arginine vasopressin), Peninsula Labs, Belmont, Calif., USA (#8103)) was dissolved in 0.1N acetic acid. Test agents were dissolved in DMSO and diluted in DMSO to 200 times the final test concentration. […] The order of incubations was randomized. Incubations were initiated by removing the prelabeling medium, washing the monolayer once with 1 mL of 0.9% NaCl, and transferring the contents of the assay tubes to corresponding wells. The plates were incubated for 1 hour at 37° C. Incubations were terminated by removing the incubation medium and adding 500 μL of ice cold 5% (w/v) trichloroacetic acid and allowing the wells to stand for 15 min.
Measurement of [^3H]inositol phosphates (V1a and V1b). BioRad Poly-Prep Econo-Columns were packed with 0.3 mL of AG 1 X-8 100-200 formate form resin. Resin was mixed 1:1 with water and 0.6 mL added to each column. Columns were then washed with 10 mL water. Scintillation vials (20 mL) were placed under each column. For each well, the contents were transferred to a minicolumn, after which the well was washed with 0.5 mL distilled water, which was also added to the minicolumn. The columns were then washed twice with 5 mL of 5 mM myo-inositol to elute free inositol. Aliquots (1 mL) were transferred to 20 mL scintillation vials and 10 mL of Beckman Ready Protein Plus added. After the myo-inositol wash was complete, empty scintillation vials were placed under the columns, and [^3H]inositol phosphates were eluted with three additions of 1 mL 0.5 M ammonium formate containing 0.1 N formic acid. […] Inositol lipids were measured by adding 1 mL of 2% sodium dodecyl sulfate (SDS) to each well, allowing the wells to stand for at least 30 min., and transferring the solution to 20 mL scintillation vials, to which 10 mL Beckman Ready Protein Plus scintillation fluid was then added. Samples were counted in a Beckman LS 3801 liquid scintillation counter for 10 min. Total inositol incorporation for each well was calculated as the sum of free inositol, inositol phosphates, and inositol lipids.
Data analysis (V1a and V1b): concentration-inhibition experiments. Concentration-response curves for AVP and concentration-inhibition curves for test agents versus 10 nM AVP were analyzed by nonlinear least-squares curve-fitting to a 4-parameter logistic function. […] The curve-fitting was weighted under the assumption that the standard deviation was proportional to dpm of radioactivity. […]

human V1a receptor [2] = molecular target: T1, human V1a receptor; test: Human vasopressin V1a receptor binding assay; conditions: hV1a cell line, [3H]-AVP
Procedure: EXAMPLE. Human vasopressin V1a receptor binding assay. A cell line expressing the human V1a receptor in CHO cells (henceforth referred to as the hV1a cell line) was obtained from Dr. Michael Brownstein, NIMH, Bethesda, Md., USA. The hV1a cDNA sequence is described by Thibonnier et al., Journal of Biological Chemistry, 269, 3304-3310 (1994), and the expression method was the same as described by Morel et al. (1992). The hV1a cell line was grown in alpha-MEM with 10% fetal bovine serum and 250 ug/ml G418 (Gibco, Grand Island, N.Y., USA). For competitive binding assay, hV1a cells were plated into 6-well culture plate at 1:10 dilution from a confluency flask, and maintained in culture for at least two days. Culture medium was then removed, cells were washed with 2 ml binding buffer (25 mM Hepes, 0.25% BSA, 1×DMEM, PH=7.0). To each well, 990 μl binding buffer containing 1 nM 3H-AVP was added, and followed by 10 μl series diluted Example compounds dissolved in DMSO. […] 100 nM cold AVP (Sigma) was used to assess non-specific binding. Cells were incubated for 45 minutes at 37° C., assay mixture was removed and each well was washed three times with PBS (pH=7.4). 1 ml 2% SDS was added per well and plates were let sit for 30 minutes. The whole content in a well was transferred to a scintillation vial. Each well was rinsed with 0.5 ml PBS which was then added to the corresponding vial. Scintillation fluid (Ecoscint, National Diagnostics, Atlanta, Ga.) was then added at 3 ml per vial. Samples were counted in a liquid scintillation counter (Beckman LS3801). IC50 values were calculated by Prism Curve fitting software.
All of the alkanedioic esters and amides exemplified in the foregoing examples dissolved in DMSO were tested in this assay. Binding curves were generated according to methods described by Thibonnier et al. (1994). [^3H]-AVP was added to the hV1a cell cultures followed by 10-fold dilutions of each test compound.

V1b receptor = molecular target: T2, V1b receptor (Homo sapiens, UniProt P47901); test: Human or rat vasopressin V1b cell-based receptor binding assay; conditions: selectivity table; read-out: inhibition data Ki, V1b
T2 construct: expressed in transfected cells; host or cells: CHO-K1 (ATCC), vector PCI-neo
T2 sequence (P47901 1-424): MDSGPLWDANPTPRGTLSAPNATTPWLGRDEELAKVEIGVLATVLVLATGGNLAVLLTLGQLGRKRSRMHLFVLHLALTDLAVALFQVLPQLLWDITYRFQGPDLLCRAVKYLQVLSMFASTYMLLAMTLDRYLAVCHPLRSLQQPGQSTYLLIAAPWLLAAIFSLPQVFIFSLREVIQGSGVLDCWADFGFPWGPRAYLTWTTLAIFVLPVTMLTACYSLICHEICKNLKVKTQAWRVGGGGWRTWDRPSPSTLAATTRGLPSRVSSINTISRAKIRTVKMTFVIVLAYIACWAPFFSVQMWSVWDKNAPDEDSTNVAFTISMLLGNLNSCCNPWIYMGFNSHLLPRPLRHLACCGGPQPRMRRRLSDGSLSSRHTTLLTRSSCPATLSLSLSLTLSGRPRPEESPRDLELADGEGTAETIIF
From the text: EXAMPLE. Human vasopressin V1b receptor-expressing cells. Human vasopressin receptor 1b (hV1b) cDNA (see, Lolait et al., “Extrapituitary expression of the rat V1b vasopressin receptor gene” Proc. Natl. Acad. Sci. USA. 92:6783-7 (1995); de Keyzer et al., “Cloning and characterization of the human V3(V1b) pituitary vasopressin receptor” FEBS Lett. 356:215-20 (1994); Sugimoto et al., “Molecular cloning and functional expression of a cDNA encoding the human V1b vasopressin receptor” J. Biol. Chem. 269:27088-92 (1994)) was inserted into a mammalian cell expression vector PCI-neo (Promega) at EcoR1 site. The recombinant plasmid carrying hV1b cDNA was identified from transformed E. Coli clones and used for the transfection of Chinese hamster ovary cell (CHO-K1, ATCC). Two micrograms of hV1b receptor DNA was introduced into 10^5 CHO cells cultured in 6-well plate, using Fugene-6 mediated transfection technique (Boehringer Mannheim). Twenty-four hrs post transfection, Cells were then cultured under selection of G-418 (0.25 mg/ml) supplemented to the culture medium. Three days later, limited dilution was carried out to obtain single cell clones in 96-well plates. […]
EXAMPLE. […] Samples were counted in a liquid scintillation counter (Beckman LS3801). IC50 and Ki values were calculated using Prism Curve fitting software. […]

V2 = V2 (Homo sapiens, UniProt P30518); test: V2 receptor inhibition data (Ki); assay type: binding; conditions: selectivity table
Pharmacokinetics = assay type: in vivo; conditions: b.i.d. dosing
From the text: EXAMPLE. Pharmacokinetics. Compounds described herein are rapidly absorbed after oral administration. Compounds described herein cross the blood-brain-barrier and achieve therapeutically effective concentrations in the CNS. Compounds described herein may be dosed according to a wide variety of protocols, including but not limited to q.d., b.i.d., and the like.

T1 sequence (P37288 whole entry): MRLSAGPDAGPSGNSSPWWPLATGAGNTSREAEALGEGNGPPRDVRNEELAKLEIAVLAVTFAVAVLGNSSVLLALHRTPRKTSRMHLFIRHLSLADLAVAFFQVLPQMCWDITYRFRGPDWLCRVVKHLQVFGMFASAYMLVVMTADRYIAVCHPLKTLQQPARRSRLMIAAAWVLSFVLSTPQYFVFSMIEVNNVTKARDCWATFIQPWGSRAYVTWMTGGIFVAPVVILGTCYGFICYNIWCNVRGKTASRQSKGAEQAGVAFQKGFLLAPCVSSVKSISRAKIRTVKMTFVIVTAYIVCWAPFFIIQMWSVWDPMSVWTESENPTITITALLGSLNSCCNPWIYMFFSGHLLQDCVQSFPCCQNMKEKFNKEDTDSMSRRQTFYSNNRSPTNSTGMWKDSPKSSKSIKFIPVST
Sequence of V2 (P30518 whole entry): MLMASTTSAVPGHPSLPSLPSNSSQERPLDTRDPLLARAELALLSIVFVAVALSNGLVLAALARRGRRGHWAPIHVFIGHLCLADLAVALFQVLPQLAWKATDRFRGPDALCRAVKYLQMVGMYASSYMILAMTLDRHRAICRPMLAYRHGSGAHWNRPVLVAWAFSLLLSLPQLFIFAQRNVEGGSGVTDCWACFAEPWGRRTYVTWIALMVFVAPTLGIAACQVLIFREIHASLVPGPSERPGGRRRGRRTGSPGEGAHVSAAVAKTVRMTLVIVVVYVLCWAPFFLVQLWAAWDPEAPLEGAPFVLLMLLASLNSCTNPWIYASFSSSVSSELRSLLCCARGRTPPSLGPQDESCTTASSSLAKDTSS

Compound: O=C(NCc1cccc(C(F)(F)F)c1)C(CCC(=O)N1CCC(N2CCCCC2)CC1)N1C(=O)C(N2C(=O)OCC2c2ccccc2)C1C=Cc1ccccc1 (stereo not shown) [Example 88]
- agonist or antagonist character (inhibition of vasopressin-mediated phosphatidylinositol turnover) (human V1a receptor [1]): vasopressin V1a antagonists

Compound: O=C(NCc1cccc(C(F)(F)F)c1)C(CCC(=O)N1CCN(C2CCCCC2)CC1)N1C(=O)C(N2C(=O)OCC2c2ccccc2)C1C=Cc1ccccc1 (single isomer, unassigned) [Example 110]
- agonist or antagonist character (inhibition of vasopressin-mediated phosphatidylinositol turnover) (human V1a receptor [1]): vasopressin V1a antagonists

Compound: CN(Cc1cccc(C(F)(F)F)c1)C(=O)[C@@H](CC(=O)N1CCC(N2CCCCC2)CC1)N1C(=O)[C@@H](N2C(=O)OC[C@@H]2c2ccccc2)[C@H]1/C=C/c1ccccc1 [Example 225, 2(R)-[[4-(Piperidinyl)piperidinyl]carbonylmethyl]-2-[3(S)-(4(S)-phenyloxazolidin-2-on-3-yl)-4(R)-(2-styryl)azetidin-2-on-1-yl]acetic acid N-methyl-N-(3-trifluoromethylbenzyl)amide]
- pIC50 (human V1a receptor [2]): 8.67 to 8.73
- pKi (human V1a receptor [2]): 8.89 to 8.94
- pKi (V1b receptor): < 6.00
- pKi (V2): < 6.00

Compound: C[C@@H](NC(=O)[C@@H](CC(=O)N1CCC(N2CCCCC2)CC1)N1C(=O)[C@@H](N2C(=O)OC[C@@H]2c2ccccc2)[C@H]1/C=C/c1ccccc1)c1ccccc1 [Example 224, 2(R)-[[4-(Piperidinyl)piperidinyl]carbonylmethyl]-2-[3(S)-(4(S)-phenyloxazolidin-2-on-3-yl)-4(R)-(2-styryl)azetidin-2-on-1-yl]acetic acid N—[(R)-α-methylbenzyl]amide]
- pKi (V1b receptor): < 6.00
- pKi (V2): < 6.00
- T1/2 (Pharmacokinetics): improved
- accumulation (Pharmacokinetics): 1.7 fold

Compound: O=C(NCc1cccc(C(F)(F)F)c1)C(CC(=O)N1CCC(N2CCCCC2)CC1)N1C(=O)C(N2C(=O)OCC2c2ccccc2)C1C=Cc1ccccc1 (stereo not shown) [Example 133]
- agonist or antagonist character (inhibition of vasopressin-mediated phosphatidylinositol turnover) (human V1a receptor [1]): vasopressin V1a antagonists

Compound: O=C(NCc1cccc(C(F)(F)F)c1)[C@H](CCC(=O)N1CCN(CCc2ccccc2)CC1)N1C(=O)[C@@H](N2C(=O)OC[C@@H]2c2ccccc2)[C@H]1C=Cc1ccccc1 (single isomer, unassigned) [Example 35]
- agonist or antagonist character (inhibition of vasopressin-mediated phosphatidylinositol turnover) (human V1a receptor [1]): vasopressin V1a antagonists

Compound: O=C(NCc1cccc(C(F)(F)F)c1)C(CC(=O)N1CCC(N2CCCCC2)CC1)N1C(=O)C(N2C(=O)OCC2c2ccccc2)C1C=Cc1ccccc1 (stereo not shown) [Example 44]
- agonist or antagonist character (inhibition of vasopressin-mediated phosphatidylinositol turnover) (human V1a receptor [1]): vasopressin V1a antagonists
